Results as given in US20170354148A1, “SAFENED HERBICIDAL COMPOSITIONS CONTAINING HALAUXIFEN AND METHODS OF USE THEREOF IN BRASSICA SPECIES” (Dow AgroSciences LLC, priority 2016, published 2017).
“And” between values parts separate entries of the source, which are not always exact repeats. Equal entries are not always repeated.

Tests used:
[1] = tested on: winter oilseed rape (Brassica napus, BRSNW); assay: Example 4 field trials (Europe), postemergence crop safety, visual phytotoxicity; conditions: for Mean % Visual Injury / Mean % Visual Deformation: alone or mixed
[2] = tested on: kale/Chinese kale (Brassica alboglabra, BRSAG); assay: Example 5 greenhouse trials, postemergence visual injury; conditions: BRSAG, 20-22 d
[3] = tested on: Spring Argentine canola (Brassica napus, BRSNS); assay: Example 3 field trials (Canada), postemergence crop safety, visual phytotoxicity
[4] = BRSNS, trial 1, 17DAA1, 150 g ae/ha
[5] = BRSNS, trial 1, 32DAA1, 150 g ae/ha

O=C(O)c1nc(Cl)ccc1Cl [Clopyralid-olamine, 2-hydroxyethanaminium 3,6-dichloro-2-pyridinecarboxylate]
Mean % Visual Injury ([1]; 6DAA1, halauxifen-methyl 5, clopyralid-olamine 120 g ae/ha): 1% | Mean % Visual Injury ([1]; 7DAA1, halauxifen-methyl 5, clopyralid-olamine 120 g ae/ha): 1% | Mean % Visual Injury ([1]; 19DAA1, halauxifen-methyl 5, clopyralid-olamine 120 g ae/ha): 1% | Mean % Visual Growth Inhibition ([1]; 85DAA1, 120 g ae/ha alone): 3.8% | Mean % Visual Deformation ([1]; Trial 1, 27DAA1, halauxifen-methyl 5, clopyralid-olamine 120 g ae/ha): 23.8% | Mean % Visual Deformation ([1]; Trial 2, 6DAA1, halauxifen-methyl 5, clopyralid-olamine 120 g ae/ha): 1.0% | Mean % Visual Deformation ([1]; Trial 2, 7DAA1, halauxifen-methyl 5, clopyralid-olamine 120 g ae/ha): 1.0% | % Visual Injury Obs ([2]; 50 g ai/ha alone): 0% | % Visual Injury Obs ([2]; 100 g ai/ha alone): 0% | % Visual Injury Obs ([2]; 200 g ai/ha alone): 0% | Mean % Visual Injury ([3]; BRSNS, 7DAAA, 150 g ae/ha (Tables 10, 11)): 0.0% | Mean % Visual Injury ([3]; BRSNS, 15DAAA, 150 g ae/ha (Tables 10, 11)): 1.5% | Mean % Visual Injury ([3]; BRSNS, 27DAAA, 150 g ae/ha (Tables 10, 11)): 1.0% | Mean % Visual Injury ([3]; BRSNS, 57DAAA, 150 g ae/ha (Tables 10, 11)): 2.0% | Mean % Visual Deformation ([3]; BRSNS, 60DAA1, 150 g ae/ha): 0.0% | Mean % Visual Injury ([3]; BRSNS, trial 1, 7DAA1, 150 g ae/ha): 1.0% | Mean % Visual Epinasty [3, 4]: 1.0% | Mean % Visual Injury [3, 4]: 1.3% | Mean % Visual Epinasty [3, 5]: 3.5% | Mean % Visual Injury [3, 5]: 7.0% | Mean % Visual Injury ([3]; BRSNS, trial 1, 49DAA1, 150 g ae/ha): 2.8% | Mean % Visual Injury ([3]; BRSNS, trial 2, 8DAA1, 150 g ae/ha): 1.8% and 2.0% and 1.3% and 1.4% and 1.5% and 1.0% | Mean % Visual Injury ([3]; BRSNS, trial 2, 17DAA1, 150 g ae/ha): 2.5% | Mean % Visual Epinasty ([3]; BRSNS, trial 2, 35DAA1, 150 g ae/ha): 3.5% and 2.0% | Mean % Visual Injury ([3]; BRSNS, trial 2, 48DAA1, 150 g ae/ha): 2.0% and 0.8% | Mean % Visual Epinasty ([3]; BRSNS, trial 3, 6DAA1, 150 g ae/ha): 0.0% | Mean % Visual Epinasty ([3]; BRSNS, trial 3, 23DAA1, 150 g ae/ha): 0.0% | Mean % Visual Injury ([3]; BRSNS, trial 3, 33DAA1, 150 g ae/ha): 0.5% and 1.0% | Mean % Visual Injury ([3]; BRSNS, trial 3, 69DAA1, 150 g ae/ha): 0.0% | Mean % Visual Injury ([3]; BRSNS, trial 4, 8DAA1, 150 g ae/ha): 1.5% | Mean % Visual Injury ([3]; BRSNS, trial 4, 15DAA1, 150 g ae/ha): 1.5% | Mean % Visual Epinasty ([3]; BRSNS, trial 4, 17DAA1, 200 g ae/ha): 0.0% | Mean % Visual Injury ([3]; BRSNS, trial 4, 41DAA1, 150 g ae/ha): 0.8% | Mean % Visual Injury ([3]; BRSNS, trial 4, 82DAA1, 150 g ae/ha): 0.0% | Mean % Visual Injury ([3]; BRSNS, trial 5, 7DAA1, 150 g ae/ha): 0.5% and 0.0% and 1.3% and 1.5% | Mean % Visual Injury ([3]; BRSNS, trial 5, 15DAA1, 150 g ae/ha): 0.0% and 0.5% | Mean % Visual Injury ([3]; BRSNS, trial 5, 36DAA1, 150 g ae/ha): 0.5% | Mean % Visual Injury ([3]; BRSNS, trial 5, 79DAA1, 150 g ae/ha): 0.0% | Mean % Visual Injury ([3]; BRSNS, trial 6, 6DAA1, 150 g ae/ha): 0.0% | Mean % Visual Injury ([3]; BRSNS, trial 6, 23DAA1, 150 g ae/ha): 0.0% | Mean % Visual Injury ([3]; BRSNS, trial 6, 33DAA1, 150 g ae/ha): 2.0% | Mean % Visual Injury ([3]; BRSNS, trial 6, 59DAA1, 150 g ae/ha): 3.5% | Mean % Visual Injury ([3]; BRSNS, trial 7, 17DAA1, 100 g ae/ha): 0.0% | Mean % Visual Injury ([3]; BRSNS, trial 7, 17DAA1, 150 g ae/ha): 0.0% | Mean % Visual Injury ([3]; BRSNS, trial 7, 17DAA1, 200 g ae/ha): 0.0% | Mean % Visual Injury ([3]; BRSNS, trial 7, 27DAA1, 150 g ae/ha): 0.0% | Mean % Visual Injury ([3]; BRSNS, trial 7, 27DAA1, 200 g ae/ha): 3.0% | Mean % Visual Injury ([3]; BRSNS, trial 8, 7DAA1, 150 g ae/ha): 1.5% | Mean % Visual Injury ([3]; BRSNS, trial 8, 57DAA1, 150 g ae/ha): 2.3% | Mean % Visual Injury ([3]; BRSNS, trial 9, 27DAA1, 150 g ae/ha): 1.0% | Mean % Visual Injury ([3]; BRSNS, trial 9, 60DAA1, 150 g ae/ha): 0.0% | Mean % Visual Injury ([3]; Table 15, 7DAAA, halauxifen-methyl 5, clopyralid-olamine 150, quinclorac 101 g ae/ha, alone or mixed): 0.0% | Mean % Visual Injury ([3]; Table 15, 15DAAA, halauxifen-methyl 5, clopyralid-olamine 150, quinclorac 101 g ae/ha, alone or mixed): 1.5% | Mean % Visual Injury ([3]; Table 15, 27DAAA, halauxifen-methyl 5, clopyralid-olamine 150, quinclorac 101 g ae/ha, alone or mixed): 1.0% | Mean % Visual Injury ([3]; Table 15, 57DAAA, halauxifen-methyl 5, clopyralid-olamine 150, quinclorac 101 g ae/ha, alone or mixed): 2.0% | Mean % Visual Injury ([3]; Table 17, 7DAAA, halauxifen-methyl 5, clopyralid-olamine 150 g ae/ha alone, or both mixed with isoxadifen-ethyl 5 g ae/ha): 0.0% | Mean % Visual Injury ([3]; Table 17, 15DAAA, halauxifen-methyl 5, clopyralid-olamine 150 g ae/ha alone, or both mixed with isoxadifen-ethyl 5 g ae/ha): 1.5% | Mean % Visual Injury ([3]; Table 17, 27DAAA, halauxifen-methyl 5, clopyralid-olamine 150 g ae/ha alone, or both mixed with isoxadifen-ethyl 5 g ae/ha): 1.0% | Mean % Visual Injury ([3]; Table 17, 57DAAA, halauxifen-methyl 5, clopyralid-olamine 150 g ae/ha alone, or both mixed with isoxadifen-ethyl 5 g ae/ha): 2.0% | Mean % Visual Injury ([3]; Table 18, 8DAAA, halauxifen-methyl 5, clopyralid-olamine 150 g ae/ha, alone or mixed): 0.5% | Mean % Visual Injury ([3]; Table 18, 14DAAA, halauxifen-methyl 5, clopyralid-olamine 150 g ae/ha, alone or mixed): 0.5% | Mean % Visual Injury ([3]; Table 18, 40DAAA, halauxifen-methyl 5, clopyralid-olamine 150 g ae/ha, alone or mixed): 0.0% | Mean % Visual Injury ([3]; Table 18, 81DAAA, halauxifen-methyl 5, clopyralid-olamine 150 g ae/ha, alone or mixed): 0.0% | Mean % Visual Injury ([3]; Table 19, 8DAAA, halauxifen-methyl 5, clopyralid-olamine 150 g ae/ha alone, or both mixed with isoxadifen-ethyl 20 g ae/ha): 0.5% | Mean % Visual Injury ([3]; Table 19, 14DAAA, halauxifen-methyl 5, clopyralid-olamine 150 g ae/ha alone, or both mixed with isoxadifen-ethyl 20 g ae/ha): 0.5% | Mean % Visual Injury ([3]; Table 19, 40DAAA, halauxifen-methyl 5, clopyralid-olamine 150 g ae/ha alone, or both mixed with isoxadifen-ethyl 20 g ae/ha): 0.0% | Mean % Visual Injury ([3]; Table 19, 81DAAA, halauxifen-methyl 5, clopyralid-olamine 150 g ae/ha alone, or both mixed with isoxadifen-ethyl 20 g ae/ha): 0.0% | Mean % Visual Injury ([3]; Table 22, 8DAAA, halauxifen-methyl 5, clopyralid-olamine 150, quinclorac 101 g ae/ha, alone or mixed): 0.5% | Mean % Visual Injury ([3]; Table 22, 14DAAA, halauxifen-methyl 5, clopyralid-olamine 150, quinclorac 101 g ae/ha, alone or mixed): 0.5% | Mean % Visual Injury ([3]; Table 22, 40DAAA, halauxifen-methyl 5, clopyralid-olamine 150, quinclorac 101 g ae/ha, alone or mixed): 0.0% | Mean % Visual Injury ([3]; Table 22, 81DAAA, halauxifen-methyl 5, clopyralid-olamine 150, quinclorac 101 g ae/ha, alone or mixed): 0.0%
